Columns and labels:
AZD1775 = compound: C=CCn1c(=O)c2cnc(Nc3ccc(N4CCN(C)CC4)cc3)nc2n1-c1cccc(C(C)(C)O)n1 [AZD1775]; details: max 3 µM
How it was run: (§1)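 Viability was measured with CellTiter-Glo 2.0 luminescence after 72 hours of dosing at a final DMSO of typically 0.2%, and scaled between blank-well and DMSO-well means. Beforehand, cancer cell lines sat 24 hours at 37°C and 5% CO2 in 1536-well plates in 7.5 μl DMEM/F12 or RPMI with 10% FBS. A non-linear mixed effects model fitted two-parameter logistic curves to the dose responses. The single-agent IC50 comes from these fits.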

SRA737 = compound: N#Cc1cnc(Nc2cc(NC[C@H]3CNCCO3)c(C(F)(F)F)cn2)cn1 [SRA737]; details: max 10 µM
How it was run: as §1

Lapatinib = compound: CS(=O)(=O)CCNCc1ccc(-c2ccc3ncnc(Nc4ccc(OCc5cccc(F)c5)c(Cl)c4)c3c2)o1 [Lapatinib]; details: max 10 µM
How it was run: as §1

AZD4320 = compound: CN(CC[C@H](CSC1=CC=CC=C1)NC2=C(C=C(C=C2)S(=O)(=O)NC(=O)C3=CC=C(C=C3)N4CCC(CC4)[C@H](C5=CC=CC=C5C6=CC=C(C=C6)Cl)O)S(=O)(=O)C(F)(F)F)CCO [AZD4320]; details: max 1 µM
How it was run: as §1

SN-38 = compound: CCc1c2c(nc3ccc(O)cc13)-c1cc3c(c(=O)n1C2)COC(=O)[C@]3(O)CC [SN-38]; details: max 0.3 µM
How it was run: as §1

Carboplatin = compound: C1CC(C1)(C(=O)[O-])C(=O)[O-].N.N.[Pt+2] [Carboplatin]; details: max 10 µM
How it was run: as §1

Gefitinib = compound: COc1cc2ncnc(Nc3ccc(F)c(Cl)c3)c2cc1OCCCN1CCOCC1 [Gefitinib]; details: max 10 µM
How it was run: as §1

Palbociclib = compound: CC(=O)c1c(C)c2cnc(Nc3ccc(N4CCNCC4)cn3)nc2n(C2CCCC2)c1=O [Palbociclib]; details: max 10 µM
How it was run: as §1

Dasatinib = compound: CC1=C(C(=CC=C1)Cl)NC(=O)C2=CN=C(S2)NC3=CC(=NC(=N3)C)N4CCN(CC4)CCO [Dasatinib]; details: max 2 µM
How it was run: as §1

Trametinib = compound: CC(=O)Nc1cccc(-n2c(=O)n(C3CC3)c(=O)c3c(Nc4ccc(I)cc4F)n(C)c(=O)c(C)c32)c1 [Trametinib]; details: max 1 µM
How it was run: as §1

AZD5363 = compound: C1CN(CCC1(C(=O)N[C@@H](CCO)C2=CC=C(C=C2)Cl)N)C3=NC=NC4=C3C=CN4 [AZD5363]; details: max 10 µM
How it was run: as §1

AZD5153 = compound: COc1nnc2ccc(N3CCC(c4ccc(OCCN5CCN(C)C(=O)[C@H]5C)cc4)CC3)nn12 [AZD5153]; details: max 1 µM
How it was run: as §1

MK-2206 = compound: NC1(c2ccc(-c3nc4ccn5c(=O)[nH]nc5c4cc3-c3ccccc3)cc2)CCC1 [MK-2206]; details: max 10 µM
How it was run: as §1

AZD1390 = compound: CC(C)n1c(=O)n(C)c2cnc3cc(F)c(-c4ccc(OCCCN5CCCCC5)nc4)cc3c21 [AZD1390]; details: max 0.3 µM
How it was run: as §1

Olaparib = compound: O=C(c1cc(Cc2n[nH]c(=O)c3ccccc23)ccc1F)N1CCN(C(=O)C2CC2)CC1 [Olaparib]; details: max 10 µM
How it was run: as §1

[1] = compound: O=C(Nc1ccc2[nH]nc(-c3ccncc3)c2c1)[C@@H]1CCN(CC(=O)N2CCN(c3ccc(-c4ncccn4)cc3)CC2)C1; details: max 5 µM
How it was run: as §1

Savolitinib = compound: C[C@@H](c1ccc2nccn2c1)n1nnc2ncc(-c3cnn(C)c3)nc21 [Savolitinib]; details: max 1 µM
How it was run: as §1

Selumetinib = compound: Cn1cnc2c(F)c(Nc3ccc(Br)cc3Cl)c(C(=O)NOCCO)cc21 [Selumetinib]; details: max 10 µM
How it was run: as §1

Etoposide = compound: COc1cc([C@@H]2c3cc4c(cc3[C@@H](O[C@@H]3O[C@@H]5CO[C@@H](C)O[C@H]5[C@H](O)[C@H]3O)[C@H]3COC(=O)[C@H]23)OCO4)cc(OC)c1O [Etoposide]; details: max 10 µM
How it was run: as §1

Crizotinib = compound: C[C@@H](Oc1cc(-c2cnn(C3CCNCC3)c2)cnc1N)c1c(Cl)ccc(F)c1Cl [Crizotinib]; details: max 10 µM
How it was run: as §1

AZD7648 = compound: Cc1cc2ncnn2cc1Nc1ncc2c(n1)n(C1CCOCC1)c(=O)n2C [AZD7648]; details: max 10 µM
How it was run: as §1

AZD2811 = compound: CCN(CCO)CCCOc1ccc2c(Nc3cc(CC(=O)Nc4cccc(F)c4)[nH]n3)ncnc2c1 [AZD2811]; details: max 1 µM
How it was run: as §1

Gemcitabine = compound: Nc1ccn([C@@H]2O[C@H](CO)[C@@H](O)C2(F)F)c(=O)n1 [Gemcitabine]; details: max 0.3 µM
How it was run: as §1

Venetoclax = compound: CC1(C)CCC(CN2CCN(c3ccc(C(=O)NS(=O)(=O)c4ccc(NCC5CCOCC5)c([N+](=O)[O-])c4)c(Oc4cnc5[nH]ccc5c4)c3)CC2)=C(c2ccc(Cl)cc2)C1 [Venetoclax]; details: max 1 µM
How it was run: as §1

Doxorubicin = compound: COc1cccc2c1C(=O)c1c(O)c3c(c(O)c1C2=O)C[C@@](O)(C(=O)CO)C[C@@H]3O[C@H]1C[C@H](N)[C@H](O)[C@H](C)O1 [Doxorubicin]; details: max 1 µM
How it was run: as §1

AZD8186 = compound: C[C@@H](Nc1cc(F)cc(F)c1)c1cc(C(=O)N(C)C)cc2c(=O)cc(N3CCOCC3)oc12 [AZD8186]; details: max 10 µM
How it was run: as §1

Prexasertib = compound: COc1cccc(OCCCN)c1-c1cc(Nc2cnc(C#N)cn2)n[nH]1 [Prexasertib]; details: max 1 µM
How it was run: as §1

SG3199 = compound: CC1=CN2[C@@H](C1)C=NC3=CC(=C(C=C3C2=O)OC)OCCCCCOC4=C(C=C5C(=C4)N=C[C@@H]6CC(=CN6C5=O)C)OC [SG3199]; details: max 0.001 µM
How it was run: as §1

Alisertib = compound: COc1cc(Nc2ncc3c(n2)-c2ccc(Cl)cc2C(c2c(F)cccc2OC)=NC3)ccc1C(=O)O [Alisertib]; details: max 10 µM
How it was run: as §1

AZD5991 = compound: Cc1c2c(nn1C)CSCc1cc(n(C)n1)CSc1cc(c3ccccc3c1)OCCCc1c(C(=O)O)n(C)c3c-2c(Cl)ccc13 [AZD5991]; details: max 1 µM
How it was run: as §1

AZD0156 = compound: CN(C)CCCOc1ccc(-c2ccc3ncc4c(c3c2)n(C2CCOCC2)c(=O)n4C)cn1 [AZD0156]; details: max 3 µM
How it was run: as §1

Paclitaxel = compound: CC(=O)O[C@H]1C(=O)[C@@]2(C)[C@H]([C@H](OC(=O)c3ccccc3)[C@]3(O)C[C@H](OC(=O)[C@H](O)[C@@H](NC(=O)c4ccccc4)c4ccccc4)C(C)=C1C3(C)C)[C@]1(OC(C)=O)CO[C@@H]1C[C@@H]2O [Paclitaxel]; details: max 3 µM
How it was run: as §1

5-Fluorouracil = compound: O=c1[nH]cc(F)c(=O)[nH]1 [5-Fluorouracil]; details: max 20 µM
How it was run: as §1

Taselisib = compound: Cc1nc(-c2cn3c(n2)-c2ccc(-c4cnn(C(C)(C)C(N)=O)c4)cc2OCC3)n(C(C)C)n1 [Taselisib]; details: max 10 µM
How it was run: as §1

AZD6738 = compound: C[C@@H]1COCCN1C2=NC(=NC(=C2)C3(CC3)[S@](=N)(=O)C)C4=C5C=CNC5=NC=C4 [AZD6738]; details: max 10 µM
How it was run: as §1

NCI-H2009 (Lung Adenocarcinoma)
IC50, cell viability 72 h (AZD1775): 1020 nM | IC50, cell viability 72 h (SRA737): > 10000 nM | IC50, cell viability 72 h (Lapatinib): > 10000 nM | IC50, cell viability 72 h (AZD4320): > 1000 nM | IC50, cell viability 72 h (SN-38): 190 nM | IC50, cell viability 72 h (Carboplatin): > 10000 nM | IC50, cell viability 72 h (Gefitinib): > 10000 nM | IC50, cell viability 72 h (Palbociclib): > 10000 nM | IC50, cell viability 72 h (Dasatinib): > 2000 nM | IC50, cell viability 72 h (Trametinib): 407 nM | IC50, cell viability 72 h (AZD5363): > 10000 nM | IC50, cell viability 72 h (AZD5153): > 1000 nM | IC50, cell viability 72 h (MK-2206): > 10000 nM | IC50, cell viability 72 h (AZD1390): > 300 nM | IC50, cell viability 72 h (Olaparib): > 10000 nM | IC50, cell viability 72 h [1]: > 5000 nM | IC50, cell viability 72 h (Savolitinib): > 1000 nM | IC50, cell viability 72 h (Selumetinib): > 10000 nM | IC50, cell viability 72 h (Etoposide): > 10000 nM | IC50, cell viability 72 h (Crizotinib): > 10000 nM | IC50, cell viability 72 h (AZD7648): > 10000 nM | IC50, cell viability 72 h (AZD2811): > 1000 nM | IC50, cell viability 72 h (Gemcitabine): > 300 nM | IC50, cell viability 72 h (Venetoclax): > 1000 nM | IC50, cell viability 72 h (Doxorubicin): > 1000 nM | IC50, cell viability 72 h (AZD8186): > 10000 nM | IC50, cell viability 72 h (Prexasertib): 846 nM | IC50, cell viability 72 h (SG3199): > 1 nM | IC50, cell viability 72 h (Alisertib): 8100 nM | IC50, cell viability 72 h (AZD5991): > 1000 nM | IC50, cell viability 72 h (AZD0156): > 3000 nM | IC50, cell viability 72 h (Paclitaxel): 162 nM | IC50, cell viability 72 h (5-Fluorouracil): > 20000 nM | IC50, cell viability 72 h (Taselisib): 6380 nM | IC50, cell viability 72 h (AZD6738): > 10000 nM

— the supplement of paper PMC11061612
